Measurements: patent US12503426B2, “Synthetic derivatives of oleoyl-lysophosphatidylinositol (oleoyl-LPI) and uses thereof” (LIPOVEXA SRL, priority 2017, dated 2025)

Columns and labels:
Glutag cells = assay: GLP-1 secretion by Glutag cells; format: cell-based, murine; conditions: Glutag cells, inhibitor 1 hour before oleoyl-LPI (PD98059 50 μM; H89 10 μM)
Protocol: Glutag cells were maintained in low glucose DMEM (Sigma) (1 g/L) containing 2.0 mM L-glutamine, 1.0 mM sodium pyruvate and supplemented with 10% FBS, 100 IU/ml penicillin, 100 μg/ml streptomycin at a 37° C. and 5% CO2.
(§1) Approximately 80,000 Glutag cells were plated in poly-L-lysine-coated 24-well culture plates and grown to about 80% confluence. NCI-H716 cells were seeded on growth factor reduced Matrigel™ (Becton Dickinson, Bedford, MA) in DMEM medium, supplemented with 10% FBS the day before the experiment. For NCI-H716 cells, approximately 25,000 cells were needed for this secretion experiment in order to have good stimulation with lower basal GLP-1 secretion. In brief, Glutag and NCI-H716 cells were washed twice and then incubated for 2 h with FBS-free DMEM containing 1% (M:C) alone (negative control), 10 μM forskolin as positive control (Sigma-Aldrich), or with different concentrations of Oleoyl-LPI. M:C was used as a solvent to prepare stock solutions of fatty acid derivatives and inhibitors. For secretion experiments, medium and cells were collected separately.
(§2) In separate studies, GLUTag or NCI-H716 cells were pre-treated for 1 hour with medium alone (1% DMSO, negative control), PD98059 (50 μM; Sigma Chemical Co.), H89 (10 μM; Santa Cruz) followed by treatment with oleoyl-LPI (20 μM), OEA (10 μM), AR231453(1 μM), PMA (10 μM) or forskolin (10 μM, positive control) in the presence of inhibitors, as appropriate, for about 2 h. Medium GLP-1 secretion was calculated as total GLP-1 content of medium normalised for the basal secretion of the control.
(§3) In order to investigate the role of different LPI species in enteroendocrine cells, murine (Glutag) and human (NCI-H716) L-cells were stimulated with the following different species of LPI: Arachidonyl-LPI, Stearoyl-LPI, Heptadecenoyl-LPI and oleoyl-LPI, as well as with OEA and LPC. Experiments were performed in duplicate, n=4 and the level of total GLP-1 was measured by ELISA.

NCI-H716 cells = assay: GLP-1 secretion by NCI-H716 cells (Examples 2-8); format: cell-based, human; conditions: NCI-H716 cells, inhibitor 1 hour before oleoyl-LPI (PD98059 50 μM; H89 10 μM)
Protocol: NCI-H716 cells were maintained in 75 cm^2 tissue culture flasks (Corning) in RPMI 1640 media containing 2.0 mM L-glutamine, 1.5 g/L sodium bicarbonate, 10 mM HEPES buffer, 1.0 mM sodium pyruvate, and 4.5 g/L glucose and supplemented with 10% FBS at a 37° C. and 5% CO2. When plating for experiment, cell adhesion and endocrine differentiation were initiated by growing cells in dishes coated with growth factor reduced Matrigel diluted at the ratio of 1:2 (Becton Dickinson, Bedford, MA) in high-glucose DMEM, 10% FBS, 2 mM glutamine, 100 IU/ml penicillin, and 100 μg/ml streptomycin as described previously by De Bruine, a P., Dinjens, W. N., van der Linden, E. P., Pijls, M. M., Moerkerk, P. T., & Bosman, F. T. (1993) The American Journal of Pathology, Vol 142(3), pp 773-782, the disclosure of which is incorporated herein in its entirety by reference.
as §1, §2, §3

ERK = ERK phosphorylation by Western blot, NCI-H716 cells; format: cell-based, human; conditions: pre-treatment 1 hour, 50 μM, then oleoyl-LPI
Protocol: When cell cultures reached 80-90%, media were removed and cells were washed twice with 1×PBS. The cells were lysed in 150 μl (for one well of a 6 well plate) of Triton X-100 lysis buffer, containing phosphatase inhibitor cocktail (1:1000) (Sigma Aldrich, UK) and protease inhibitor (1:1000, Sigma Aldrich, UK). Cells were detached with scrapers and lysate were collected and centrifuged at 10,000 rpm, 4° C. for 5 minutes. The supernatant was then transferred to a 1.5 ml microcentrifuge tube and used for protein quantification. Cell lysates were stored at −20° C. for longer storage. All lysates were prepared on ice.
Non-specific antibody binding was prevented by incubating the nitrocellulose membrane in 5% milk in PBS-0.05% Tween-20 (v/v) for 30 minutes on a rotating plate. The membrane was then washed in PBS-0.05% Tween-20 (v/v) and then incubated with the primary antibody diluted in PBS-0.05% Tween-20 (v/v) on a rotating plate overnight at 4° C. After 24 hours, the membrane was washed 5× for 5 minutes with PBS-0.05% Tween-20 (v/v), and then incubated on a rotating plate with the appropriate secondary antibody for 1 hour at room temperature. […]

GPR55 mRNA = assay: siRNA knockdown of GPR55 mRNA by real-time RT-PCR; format: cell-based, murine; conditions: Glutag cells, 48 hours post transfection
Protocol: Transfection was performed according to the “Lipofectamine transfection protocol” (Invitrogen, Life Technologies) and optimised for a 6-well plate format. Briefly, cells were plated in complete growth medium at a density of 3.0×10^5/well in a 6-well plate and incubated at 37° C./5% CO2. Twenty-four hours later, when cells were ˜60% confluent, transfection was performed in RNAse-free conditions. 300 nM of total siRNA pool and 4.0 μl of Lipofectamine transfection reagent were diluted in separate tubes in Optimem and incubated for 5 min at room temperature (RT). The contents of the tubes were carefully mixed and incubated again for 20 min at RT. Cells were washed twice with sterile 1×PBS and incubated in 300 μL of Optimem. After 20 min, transfection complexes were added to the cells drop wise. Cells were then incubated for 4 hours before adding Optimem containing 30% serum without antibiotic. Cells were further incubated at 37° C./5% CO2 for 48 h before secretion experiment. […]
Transfection efficiency was quantified by real-time RT-PCR. […]
RT-qPCR was performed according to manufacturer's instructions (Cat. No. K0222, Fermentas). […] The relative changes in gene expression quantification were calculated using the relative ddCT analysis mode of the ABI 7500 Real-Time PCR system software.

Compound	oleoyl-LPI induced GLP-1 secretion with inhibitor pre-treatment (Glutag cells)	oleoyl-LPI induced GLP-1 secretion with inhibitor pre-treatment (NCI-H716 cells)	ERK phosphorylation (ERK)	knockdown of GPR55 mRNA (GPR55 mRNA)
COc1cccc(-c2cc(=O)c3ccccc3o2)c1N [PD98059]	significantly reduced oleoyl-LPI induced GLP-1 secretion	significantly reduced oleoyl-LPI induced GLP-1 secretion	substantially reduced ERK phosphorylation	
GPR55 siRNA: murine siRNA against GPR55, ACAGGGAAGUGGAGAGAUA (SEQ ID NO: 3) (listed as RNA, chemistry not given here; listed as Mus musculus)				80%
